Values quoted from earlier work as cited in patent publication US7632828B2, “Gram-positive carbapenem antibacterials and processes for their preparation” (FOB Synthesis, Inc., priority 2004, dated 2009).
One block for each compound: values may come before it.

Experiments:
[1] = due to its lactam nucleus and amino acid configuration
kidney dehydropeptidase = target: T1, kidney dehydropeptidase (Homo sapiens, UniProt P16444)
T1 sequence (P16444 17-385): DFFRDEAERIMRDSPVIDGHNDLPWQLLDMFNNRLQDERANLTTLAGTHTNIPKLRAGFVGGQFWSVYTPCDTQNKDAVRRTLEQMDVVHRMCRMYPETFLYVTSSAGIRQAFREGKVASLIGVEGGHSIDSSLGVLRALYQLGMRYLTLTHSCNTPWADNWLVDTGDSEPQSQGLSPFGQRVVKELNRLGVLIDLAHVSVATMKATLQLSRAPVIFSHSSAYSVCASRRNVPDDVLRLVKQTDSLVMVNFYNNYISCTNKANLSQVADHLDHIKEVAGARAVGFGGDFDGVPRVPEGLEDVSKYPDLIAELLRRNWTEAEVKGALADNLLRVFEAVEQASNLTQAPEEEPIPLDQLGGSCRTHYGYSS

[2] = target: T2, mammalian β-lactamase renal dehydropeptidase-I (DHP-I) (Homo sapiens, UniProt P16444)
T2 sequence (P16444 17-385): T1 sequence (P16444 17-385)

[3] = test subjects

Compound: meropenem
activity against Gram-negative bacteria (Gram-negative bacteria): active against a large number of Gram-negative bacteria

chemical stability [1]: chemically unstable
Compound: C[C@@H](O)[C@H]1C(=O)N2C(C(=O)O)=C(SCCN)C[C@H]12 [thienamycin]
activity against Pseudomonas spp. (Pseudomonas spp.): active against Pseudomonas spp.

Compound: Biapenem
stability against hydrolysis by kidney dehydropeptidase (kidney dehydropeptidase): stability against hydrolysis by kidney dehydropeptidase
potency across bacterial spectrum (wide bacterial spectrum): exhibits potency across a wide bacterial spectrum

stability to renal dehydropeptidase-I (DHP-I) [2]: instability
urinary tract recovery [3]: poor urinary tract recovery
Compound: C[C@@H](O)[C@H]1C(=O)N2C(C(=O)O)=C(SCCN=CN)C[C@H]12 [imipenem, N-formimidoyl thienamycin]
